Test results: PMC8691714 (Cancer Research Communications, 2021)
Marks after values point to notes of the source that are not given here.

Assays:
[1] = In vivo pharmacokinetic study in mice, oral ibrutinib (plasma, LC-MS/MS)
Protocol: (§1) Experiments were performed with male and female mice from inbred wild-type strains (FVB, C57BL/6, DBA) or with age- and sex-matched genetically engineered mice with a deficiency of the Cyp3a locus [(8 genes; FVB.129P2-Cyp3a13^tm1Ahs Del (5Cyp3a57-Cyp3a59)1Ahs); ref. [16]; CYP3A^−/−], a deficiency of the intestinal transporter OATP2B1 (ref. [17]; OATP2B1 ^−/−), or the hepatic transporter OATP1B2 (ref. [18]; OATP1B2 ^−/−). […] The studies were approved by the University Laboratory Animal Resources Animal Care and Use Committee at The Ohio State University (Columbus, OH). […] For in vivo studies, drugs were prepared in standard vehicles ([19, 20]). Details regarding the preparation of drugs are provided in the Supplementary Methods.
(§2) Pharmacokinetic studies were performed as described previously ([21]). Further details are provided in the Supplementary Methods.
(§3) The lower limit of quantification was 5 ng/mL, using 5-μL sample volumes. Details regarding the analytic method are provided in the Supplementary Methods.
(§4) Ketoconazole was prepared for oral administration as a 10-mg/mL suspension in PEG400, and cobicistat as a 6-mg/mL suspension in corn oil.
(§5) Pharmacokinetic studies were performed as previously described.
The analytical equipment consisted of a Vanquish UHPLC system, a TSQ Quantum Ultra triple quadrupole mass spectrometer from Thermo Fisher Scientific, and Thermo Trace Finder General Quan system software (version 3.3). An Accucore Vanquish C18 column (100 × 2.1 mm, dp = 1.5 μm; Thermo Fisher Scientific) was protected by a corresponding XBridgeBEH C18, 5-μm guard column. The injection volume of sample was 5.0 μL. The temperature of the autosampler rack was 4 °C, and the temperature of the column was 40 °C. Mobile phase A consisted of water with 0.1% (v/v) formic acid and mobile phase B consisted of acetonitrile: methanol (1:3) with 0.1% (v/v) formic acid. The total run time was 5 min. The mobile phase was delivered at a flow rate of 0.4 mL/min, and the optimized gradient contained time-varying amounts of mobile phase B, as follows: 0-0.5 min, 10% B; 0.5-1.5 min, 95% B; 1.5-2.9 min, 95% B; 2.9-3.0 min, 10% B; and 3.0-5.0 min, 10% B. The mass spectrometric assay settings included a positive voltage applied to the ESI capillary of 3500 V, a capillary temperature of 342 °C, and a vaporizer temperature of 358 °C. Argon was used a collision gas at a pressure of 1.5 mTorr. […] For sample extraction by protein precipitation, 5 µL of plasma, 5 µL of microsomal suspension, or 10 µL of homogenized tissue were added to a tube containing 60 µL of internal standard solution and 20 µL of methanol. Samples were then vortex-mixed, centrifuged at 13,000 rpm for 9.5 min, and supernatants collected and stored frozen until analysis. […] The lower limit of quantification was 5 ng/mL, using 5-µL sample volumes.

[2] = In vivo pharmacokinetic study in mice, intravenous ibrutinib (plasma); conditions: female wild-type FVB mice, ibrutinib 1 mg/kg IV; for PCI-45227 AUC(0-last) / PCI-45227 Cmax: mean (SD)
Protocol: as §1, §2, §3, §4, §5

[3] = population PK model estimate, mice
[4] = design: method as in earlier work; conditions: PBPK model parameter, ref [17, 18] and Drugbank, cited from earlier work
[5] = design: method as in earlier work; conditions: PBPK model parameter, ref [17, 18] and Drugbank, cited from earlier work; remark: listed apart in the source
[6] = female CYP3A-/- mice, ibrutinib 10 mg/kg oral, no cotreatment, mean (SE)
[7] = female OATP1B2(-/-) mice, ibrutinib 10 mg/kg PO, no co-treatment, mean (SD)
[8] = female OATP2B1(-/-) mice, ibrutinib 10 mg/kg PO, no co-treatment, mean (SD)
[9] = female wild-type C57BL/6 mice, ibrutinib 10 mg/kg PO, no co-treatment, mean (SD)
[10] = female wild-type DBA mice, ibrutinib 10 mg/kg PO, no co-treatment, mean (SD)
[11] = female wild-type FVB mice, ibrutinib 4 mg/kg oral, cotreatment cobicistat 30 mg/kg, mean (SE)
[12] = female wild-type FVB mice, ibrutinib 10 mg/kg oral single dose, cotreatment cobicistat 30 mg/kg, mean (SE)
[13] = female wild-type FVB mice, ibrutinib 10 mg/kg oral single dose, cotreatment corn oil, mean (SE)
[14] = female wild-type FVB mice, ibrutinib 10 mg/kg oral, cotreatment PEG400, mean (SE)
[15] = female wild-type FVB mice, ibrutinib 10 mg/kg oral, cotreatment cobicistat 30 mg/kg, steady-state, mean (SE)
[16] = female wild-type FVB mice, ibrutinib 10 mg/kg oral, cotreatment corn oil, steady-state, mean (SE)
[17] = female wild-type FVB mice, ibrutinib 10 mg/kg oral, cotreatment ketoconazole 50 mg/kg, mean (SE)
[18] = female wild-type FVB mice, ibrutinib 10 mg/kg oral, no cotreatment, mean (SE)
[19] = female wild-type FVB mice, ibrutinib 30 mg/kg oral, no cotreatment, mean (SE)
[20] = male OATP2B1(-/-) mice, ibrutinib 10 mg/kg PO, no co-treatment, mean (SD)
[21] = male wild-type C57BL/6 mice, ibrutinib 10 mg/kg PO, no co-treatment, mean (SD)
[22] = male wild-type FVB mice, ibrutinib 10 mg/kg PO, co-treatment No Vehicle (cobicistat experiment), mean (SD)
[23] = male wild-type FVB mice, ibrutinib 10 mg/kg PO, co-treatment None (ketoconazole experiment), mean (SD)
[24] = male wild-type FVB mice, ibrutinib 10 mg/kg PO, co-treatment PEG400, mean (SD)
[25] = male wild-type FVB mice, ibrutinib 10 mg/kg PO, co-treatment cobicistat, mean (SD)
[26] = male wild-type FVB mice, ibrutinib 10 mg/kg PO, co-treatment corn oil, mean (SD)
[27] = male wild-type FVB mice, ibrutinib 10 mg/kg PO, co-treatment ketoconazole, mean (SD)

Nc1ncnc2c1c(-c1ccc(Oc3ccccc3)cc1)nn2[C@@H]1CCCN(C(=O)C(O)CO)C1 (some centres unmarked) [PCI-45227]
levels of PCI-45227 ([1]; CYP3A-/- mice, oral ibrutinib): almost undetectable levels | PCI-45227: Ibrutinib AUC ratio ([1]; female CYP3A-/- mice, ibrutinib 10 mg/kg oral, no cotreatment): 0.003 | PCI-45227 AUC(0-last) [1, 6]: 6.3 (1.7)^c ng/h/mL | PCI-45227 Cmax [1, 6]: 8.2 (2.1)^c ng/mL | PCI-45227: Parent AUC Ratio ([1]; female OATP1B2(-/-) mice, ibrutinib 10 mg/kg PO, no co-treatment): 0.14 | PCI-45227 AUC(0-last) [1, 7]: 304 (12) ng*hr/mL | PCI-45227 Cmax [1, 7]: 157 (9) ng/mL | PCI-45227: Parent AUC Ratio ([1]; female OATP2B1(-/-) mice, ibrutinib 10 mg/kg PO, no co-treatment): 1.1 | PCI-45227 AUC(0-last) [1, 8]: 1952 (168)** ng*hr/mL | PCI-45227 Cmax [1, 8]: 745 (115)** ng/mL | PCI-45227: Parent AUC Ratio ([1]; female wild-type C57BL/6 mice, ibrutinib 10 mg/kg PO, no co-treatment): 2.1 | PCI-45227 AUC(0-last) [1, 9]: 3007 (236) ng*hr/mL | PCI-45227 Cmax [1, 9]: 1373 (70) ng/mL | PCI-45227: Parent AUC Ratio ([1]; female wild-type DBA mice, ibrutinib 10 mg/kg PO, no co-treatment): 0.12 | PCI-45227 AUC(0-last) [1, 10]: 343 (52) ng*hr/mL | PCI-45227 Cmax [1, 10]: 234 (47) ng/mL | PCI-45227: Ibrutinib AUC ratio ([1]; female wild-type FVB mice, ibrutinib 4 mg/kg oral, cotreatment cobicistat 30 mg/kg): 0.05 | PCI-45227 AUC(0-last) [1, 11]: 56 (22)^c ng/h/mL | PCI-45227 Cmax [1, 11]: 30.7 (12.1)^c ng/mL | PCI-45227: Ibrutinib AUC ratio ([1]; female wild-type FVB mice, ibrutinib 10 mg/kg oral single dose, cotreatment cobicistat 30 mg/kg): 0.05 | PCI-45227 AUC(0-last) [1, 12]: 139 (56)^c ng/h/mL | PCI-45227 Cmax [1, 12]: 45 (14)^c ng/mL | PCI-45227: Ibrutinib AUC ratio ([1]; female wild-type FVB mice, ibrutinib 10 mg/kg oral single dose, cotreatment corn oil): 2.0 | PCI-45227 AUC(0-last) [1, 13]: 563 (91)^d ng/h/mL | PCI-45227 Cmax [1, 13]: 219 (61)^b ng/mL | PCI-45227: Ibrutinib AUC ratio ([1]; female wild-type FVB mice, ibrutinib 10 mg/kg oral, cotreatment PEG400): 0.87 | PCI-45227 AUC(0-last) [1, 14]: 668 (155) ng/h/mL | PCI-45227 Cmax [1, 14]: 246 (54) ng/mL | PCI-45227: Ibrutinib AUC ratio ([1]; female wild-type FVB mice, ibrutinib 10 mg/kg oral, cotreatment cobicistat 30 mg/kg, steady-state): 0.25 | PCI-45227 AUC(0-last) [1, 15]: 560 (73)^b ng/h/mL | PCI-45227 Cmax [1, 15]: 211 (65) ng/mL | PCI-45227: Ibrutinib AUC ratio ([1]; female wild-type FVB mice, ibrutinib 10 mg/kg oral, cotreatment corn oil, steady-state): 2.0 | PCI-45227 AUC(0-last) [1, 16]: 917 (128) ng/h/mL | PCI-45227 Cmax [1, 16]: 405 (74) ng/mL | PCI-45227: Ibrutinib AUC ratio ([1]; female wild-type FVB mice, ibrutinib 10 mg/kg oral, cotreatment ketoconazole 50 mg/kg): 0.08 | PCI-45227 AUC(0-last) [1, 17]: 682 (250) ng/h/mL | PCI-45227 Cmax [1, 17]: 288 (89) ng/mL | PCI-45227: Ibrutinib AUC ratio ([1]; female wild-type FVB mice, ibrutinib 10 mg/kg oral, no cotreatment): 2.5 | PCI-45227 AUC(0-last) [1, 18]: 765 (79) ng/h/mL | PCI-45227 Cmax [1, 18]: 447 (45) ng/mL | PCI-45227: Ibrutinib AUC ratio ([1]; female wild-type FVB mice, ibrutinib 30 mg/kg oral, no cotreatment): 1.9 | PCI-45227 AUC(0-last) [1, 19]: 3,281 (154) ng/h/mL | PCI-45227 Cmax [1, 19]: 837 (77) ng/mL | PCI-45227: Parent AUC Ratio ([1]; male OATP2B1(-/-) mice, ibrutinib 10 mg/kg PO, no co-treatment): 1.3 | PCI-45227 AUC(0-last) [1, 20]: 2236 (160)*** ng*hr/mL | PCI-45227 Cmax [1, 20]: 850 (96)* ng/mL | PCI-45227: Parent AUC Ratio ([1]; male wild-type C57BL/6 mice, ibrutinib 10 mg/kg PO, no co-treatment): 2.4 | PCI-45227 AUC(0-last) [1, 21]: 3338 (239) ng*hr/mL | PCI-45227 Cmax [1, 21]: 1252 (97) ng/mL | PCI-45227: Parent AUC Ratio ([1]; male wild-type FVB mice, ibrutinib 10 mg/kg PO, co-treatment No Vehicle (cobicistat experiment)): 2.8 | PCI-45227 AUC(0-last) [1, 22]: 1463 (83) ng*hr/mL | PCI-45227 Cmax [1, 22]: 578 (100) ng/mL | PCI-45227: Parent AUC Ratio ([1]; male wild-type FVB mice, ibrutinib 10 mg/kg PO, co-treatment None (ketoconazole experiment)): 2.5 | PCI-45227 AUC(0-last) [1, 23]: 1080 (153) ng*hr/mL | PCI-45227 Cmax [1, 23]: 333 (112) ng/mL | PCI-45227: Parent AUC Ratio ([1]; male wild-type FVB mice, ibrutinib 10 mg/kg PO, co-treatment PEG400): 1.5 | PCI-45227 AUC(0-last) [1, 24]: 929 (164) ng*hr/mL | PCI-45227 Cmax [1, 24]: 293 (69) ng/mL | PCI-45227: Parent AUC Ratio ([1]; male wild-type FVB mice, ibrutinib 10 mg/kg PO, co-treatment cobicistat): 0.096 | PCI-45227 AUC(0-last) [1, 25]: 417 (60)*** ng*hr/mL | PCI-45227 Cmax [1, 25]: 124 (34)* ng/mL | PCI-45227: Parent AUC Ratio ([1]; male wild-type FVB mice, ibrutinib 10 mg/kg PO, co-treatment corn oil): 1.7 | PCI-45227 AUC(0-last) [1, 26]: 1124 (152)^a ng*hr/mL | PCI-45227 Cmax [1, 26]: 308 (70) ng/mL | PCI-45227: Parent AUC Ratio ([1]; male wild-type FVB mice, ibrutinib 10 mg/kg PO, co-treatment ketoconazole): 0.14 | PCI-45227 AUC(0-last) [1, 27]: 911 (94) ng*hr/mL | PCI-45227 Cmax [1, 27]: 236 (37) ng/mL | levels of PCI-45227 ([1]; mice lacking OATP2B1 vs wild-type, ibrutinib 10 mg/kg orally, P < 0.05): decreased | levels of PCI-45227 and PCI-45227-to-ibrutinib ratio ([1]; wild-type mice, cobicistat pretreatment): significantly decreased | PCI-45227: Parent AUC Ratio ([2]; co-treatment cobicistat): 0.04 | PCI-45227 AUC(0-last) ([2]; co-treatment cobicistat): 38 (27) ng*hr/mL | PCI-45227 Cmax ([2]; co-treatment cobicistat): 25 (11) ng/mL | PCI-45227 AUC(0-last) ([2]; co-treatment corn oil): 311 (15) ng*hr/mL | PCI-45227 Cmax ([2]; co-treatment corn oil): 197 (5) ng/mL | IIV CLm ([3]; inter-individual variability): 0.0242 | IIV Vm ([3]; inter-individual variability): 1.38 | Fmet (metabolism of PCI-45227) [3]: 0.0216 | Vm (volume of distribution for the central compartment of PCI-45227) [3]: 0.0578 | RV PCI ([3]; residual variability): 0.730 | pKa ([4]; acid dissociation constant): 4.06 | Log Po:w ([4]; octanol/water partition coefficient): 2.21 | B/P ratio ([5]; blood to plasma ratio): 0.790 | fu, plasma ([5]; unbound drug in the plasma): 0.056
